PubChem BioAssay (NCI)
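Each compound was tested at five concentrations against cells in 96-well plates for 48 hours. Abbreviation: GI50, concentration required for 50% inhibition of growth. At the TGI there is no net growth.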

Tests used:
Experiment in all cases: growth of human tumour cells (NCI), 48 h
[1] = test system: OVCAR-3 ovarian
[2] = test system: NCI-H226 lung
[3] = test system: K-562 leukemia
[4] = test system: BT-549 breast
[5] = test system: HCC-2998 colon
[6] = test system: 786-0 renal
[7] = test system: MCF7 breast
[8] = test system: HOP-92 NSCLC
[9] = test system: CCRF-CEM leukemia
[10] = test system: MDA-MB-231 breast

## N#Cc1c(NC(=O)c2ccc(F)cc2)sc2c1CCCC2
[1]
  GI50: > 25 µM
  TGI: > 25 µM
[2]
  GI50: > 25 µM
  TGI: > 25 µM
[3]
  GI50: > 25 µM
  TGI: > 25 µM
[4]
  GI50: > 25 µM
  TGI: > 25 µM
[5]
  GI50: > 25 µM
  TGI: > 25 µM
[6]
  GI50: > 25 µM
  TGI: > 25 µM
[7]
  GI50: > 25 µM
  TGI: > 25 µM
[8]
  GI50: > 25 µM
  TGI: > 25 µM
[9]
  GI50: > 25 µM
  TGI: > 25 µM
[10]
  GI50: > 25 µM
  TGI: > 25 µM

## N#CC(C#N)=C1CCOc2ccc(F)cc21
[1]
  GI50: 11.9 µM
  TGI: 24.2 µM
[2]
  GI50: 18 µM
  TGI: 53.7 µM
[3]
  GI50: 50.4 µM
  TGI: > 100 µM
[4]
  GI50: 53.4 µM
  TGI: > 100 µM
[6]
  GI50: 16.2 µM
  TGI: 32.8 µM
[7]
  GI50: 11.3 µM
  TGI: 23.3 µM
[8]
  GI50: 2.05 µM
  TGI: 15.9 µM
[10]
  GI50: 13 µM
  TGI: 25.7 µM

## COc1cc(-c2nc3sc(C)cn3c2/C=C2\C(=O)Nc3ccccc32)c(Br)c(OC)c1OC
[1]
  GI50: 22.9 µM
  TGI: 51 µM
[2]
  GI50: 44.2 µM
  TGI: > 100 µM
[3]
  GI50: 48.4 µM
  TGI: > 100 µM
[4]
  GI50: 23.3 µM
  TGI: 60.1 µM
[5]
  GI50: 29 µM
  TGI: 78 µM
[6]
  GI50: 21.6 µM
  TGI: 50.5 µM
[7]
  GI50: 5.81 µM
  TGI: 43.3 µM
[8]
  GI50: 26.7 µM
  TGI: 77 µM
[9]
  GI50: 43.2 µM
  TGI: > 100 µM
[10]
  GI50: 31.6 µM
  TGI: 97 µM

## COc1cc(CNCCN2C(=O)c3ccc4c5c(ccc(c35)C2=O)C(=O)N(CCNCc2cc(OC)c(OC)c(OC)c2)C4=O)cc(OC)c1OC
[1]
  GI50: 0.174 µM
  TGI: 0.548 µM
[3]
  GI50: 0.147 µM
  TGI: 0.413 µM
[4]
  GI50: 0.546 µM
  TGI: 1.22 µM
[6]
  GI50: 0.145 µM
  TGI: 0.391 µM
[7]
  GI50: 0.262 µM
  TGI: 1.05 µM
[10]
  GI50: 0.181 µM
  TGI: 0.605 µM

## CCCCNS(=O)(=O)c1n[nH]c(=O)[nH]c1=O
[1]
  TGI: > 100 µM
[2]
  TGI: > 100 µM
[3]
  TGI: > 100 µM
[4]
  TGI: > 100 µM
[6]
  TGI: > 100 µM
[7]
  TGI: > 100 µM
[9]
  TGI: 35.7 µM
[10]
  TGI: > 100 µM

## CC(=O)CC/C=C(\C)[C@H](O)[C@H](C)C(=O)O[C@H]1C[C@H](C)C=C2C=C[C@@]3(C)O[C@@H](O)CC(=O)[C@]3(C)[C@H]21
[1]
  GI50: 0.614 µM
  TGI: 3.52 µM
[2]
  GI50: 0.423 µM
  TGI: 4.6 µM
[4]
  GI50: 0.781 µM
  TGI: 3.76 µM
[5]
  GI50: 0.394 µM
  TGI: 1.96 µM
[6]
  GI50: 0.43 µM
  TGI: 3.29 µM
[7]
  GI50: 0.5 µM
  TGI: 6.19 µM
[8]
  GI50: 1.53 µM
  TGI: 7.06 µM
[9]
  GI50: 0.514 µM
  TGI: 4.83 µM
[10]
  GI50: 0.558 µM
  TGI: 3.07 µM

## COc1ccc(CCN(CC(=O)N(CC(N)=O)C2CCC[C@@H]2OCc2ccccc2)C(=O)CN(C(=O)CN(CCc2ccc(Cl)cc2)C(=O)CN(C(=O)CN(C)Cc2ccccc2F)[C@H](C)C2CCCCC2)[C@H](C)C2CCCCC2)cc1OC (stereo partly drawn)
[1]
  GI50: 1.82 µM
  TGI: > 50 µM
[2]
  GI50: 1.86 µM
  TGI: 41.7 µM
[3]
  GI50: 1.61 µM
  TGI: > 50 µM
[4]
  GI50: 1.61 µM
  TGI: 15.6 µM
[5]
  GI50: 1.61 µM
  TGI: > 50 µM
[6]
  GI50: 2.14 µM
  TGI: > 50 µM
[7]
  GI50: 1.17 µM
  TGI: > 50 µM
[8]
  GI50: 1.3 µM
  TGI: 31.3 µM
[9]
  GI50: 1.66 µM
  TGI: 15.1 µM
[10]
  GI50: 2.89 µM
  TGI: > 50 µM

## C=C1C(=O)O[C@H]2[C@H](OC(C)=O)[C@@H](C)CCCC3(C)OC3CCC3(CO3)[C@H](O)C[C@@H]12 (stereo partly drawn)
[1]
  GI50: 3.62 µM
  TGI: 18.1 µM
[2]
  GI50: 10.9 µM
  TGI: 31.7 µM
[4]
  GI50: 11.4 µM
  TGI: 32 µM
[5]
  GI50: 1.99 µM
  TGI: 7.21 µM
[6]
  GI50: 5.15 µM
  TGI: 21 µM
[7]
  GI50: 5.02 µM
  TGI: 28.7 µM
[9]
  GI50: 2.44 µM
  TGI: 7.27 µM
[10]
  GI50: 8.22 µM
  TGI: 23.9 µM

## Cc1cnc2oc3ccc(O)cc3c2c1-c1ccccc1
[1]
  GI50: 47.5 µM
  TGI: > 100 µM
[2]
  GI50: 9.35 µM
  TGI: 44.2 µM
[3]
  GI50: > 100 µM
  TGI: > 100 µM
[4]
  GI50: 19.8 µM
  TGI: 98.8 µM
[6]
  GI50: 36.3 µM
  TGI: > 100 µM
[7]
  GI50: 41 µM
  TGI: > 100 µM
[8]
  GI50: 3.34 µM
  TGI: 38.5 µM
[9]
  GI50: > 100 µM
  TGI: > 100 µM
[10]
  GI50: 3.54 µM
  TGI: > 100 µM

## CN(C)CC(=O)Nc1ccc2ncnc(Nc3ccc(Oc4cccc(C(F)(F)F)c4)c(Cl)c3)c2c1
[1]
  GI50: 1.61 µM
  TGI: 3.51 µM
[3]
  GI50: 2.21 µM
  TGI: 6.52 µM
[4]
  GI50: 3.91 µM
  TGI: 17.3 µM
[5]
  GI50: 1.66 µM
  TGI: 3.19 µM
[6]
  GI50: 1.55 µM
  TGI: 2.91 µM
[7]
  GI50: 1.53 µM
  TGI: 3.02 µM
[8]
  GI50: 1.27 µM
  TGI: 3.55 µM
[9]
  GI50: 2.52 µM
  TGI: 10.4 µM
[10]
  GI50: 1.54 µM
  TGI: 3.29 µM

## COc1cc([N+](=O)[O-])c(OC)cc1-c1nc2sc(C)cn2c1/C(N)=N/C(=N)N
[1]
  GI50: 27.6 µM
  TGI: > 100 µM
[2]
  GI50: 43.2 µM
  TGI: > 100 µM
[3]
  GI50: 2.59 µM
  TGI: > 100 µM
[4]
  GI50: 29.8 µM
  TGI: > 100 µM
[6]
  GI50: > 100 µM
  TGI: > 100 µM
[7]
  GI50: 3.92 µM
  TGI: > 100 µM
[8]
  GI50: 24.1 µM
  TGI: 88.3 µM
[9]
  GI50: 18 µM
  TGI: > 100 µM
[10]
  GI50: 16.1 µM
  TGI: 45.1 µM

## COc1ccc(C2CC(c3ccc(Nc4ccnc5cc(Cl)ccc45)cc3)=NN2C=O)cc1 (stereo not drawn)
[1]
  GI50: 14.5 µM
  TGI: 55.4 µM
[2]
  GI50: > 100 µM
  TGI: > 100 µM
[4]
  GI50: 10.9 µM
  TGI: 36.6 µM
[5]
  GI50: 18.1 µM
  TGI: > 100 µM
[6]
  GI50: 32 µM
  TGI: > 100 µM
[7]
  GI50: 8.78 µM
  TGI: > 100 µM
[9]
  GI50: 2.71 µM
  TGI: > 100 µM
[10]
  GI50: 20.1 µM
  TGI: > 100 µM

## CCOC(=O)C1=C(C)NC(=O)NC1CN1C(=O)c2ccccc2C1=O (stereo not drawn)
[1]
  GI50: > 100 µM
  TGI: > 100 µM
[3]
  GI50: > 100 µM
  TGI: > 100 µM
[4]
  GI50: > 100 µM
  TGI: > 100 µM
[5]
  GI50: > 100 µM
  TGI: > 100 µM
[6]
  GI50: > 100 µM
  TGI: > 100 µM
[7]
  GI50: > 100 µM
  TGI: > 100 µM
[8]
  GI50: > 100 µM
  TGI: > 100 µM
[9]
  GI50: > 100 µM
  TGI: > 100 µM
[10]
  GI50: > 100 µM
  TGI: > 100 µM
